“Also recorded” adds a separate entry of the source.
Tests used:
[1] = system: MSTO-211H mesothelioma cells; test: Growth inhibition by iMDK combined with ABT263 (FIG. 5); assay type: cell-based, human; conditions: 48 hours, ABT263 plus iMDK versus each drug alone
Description: FIG. 5. ABT263 enhanced iMDK-mediated suppression of cell proliferation in MSTO-211H mesothelioma cells. […] Cell lines: The human malignant pulmonary mesothelioma cells MSTO-211H, H2452, H2052, H28 MESO-1 and MESO-4 were grown in RPMI 1640 supplemented with 10% heat-inactivated fetal bovine serum. The human pulmonary adenocarcinoma cells: H441 and the human embryonic kidney cells: HEK293 were grown in high glucose Dulbecco's modified Eagle supplemented with 10% heat-inactivated fetal bovine serum. All cell lines were cultured in 5% CO2 at 37° C.

H441 cells = test: Cell viability / toxicity in H441 cells (FIGS. 18C, 19); assay type: cell-based, human; conditions: 10 μM, 3 days after treatment (not shown)
[2] = system: MSTO211H mesothelioma cells; test: Cell growth, cell count with Countess II (FIGS. 14, 15); assay type: cell-based, human; conditions: 48 hours, dose-dependent, vs DMSO control
Description: FIG. 14. iMDK (#3) and its derivatives (A6, D9 and E6) inhibits growth of MSTO211H mesothelioma cells. MSTO211H mesothelioma cells were treated with iMDK (#3) or iMDK derivatives (A6, D9 or E6) at indicated different final concentrations.
FIG. 15. iMDK (#3) and its derivatives (F5, F6 and F7) inhibits growth of MSTO211H mesothelioma cells. MSTO211H mesothelioma cells were treated with iMDK (#3) or iMDK derivatives (F5, F6 or F7) at indicated different final concentrations.
(§1) Cell lines: The human malignant pulmonary mesothelioma cells MSTO-211H, H2452, H2052, H28 MESO-1 and MESO-4 were grown in RPMI 1640 supplemented with 10% heat-inactivated fetal bovine serum. The human pulmonary adenocarcinoma cells: H441 and the human embryonic kidney cells: HEK293 were grown in high glucose Dulbecco's modified Eagle supplemented with 10% heat-inactivated fetal bovine serum. All cell lines were cultured in 5% CO2 at 37° C.

MESO4 mesothelioma cells = test: Cell growth, cell count with Countess II (FIGS. 16, 17); assay type: cell-based, human; conditions: MESO4, 48 hours, dose-dependent, vs DMSO control
Description: FIG. 16. iMDK (#3) and its derivatives (A6, D9 and E6) inhibits growth of MESO4 mesothelioma cells. MESO4 mesothelioma cells were treated with iMDK (#3) or iMDK derivatives (A6, D9 or E6) at indicated different final concentrations.
FIG. 17. iMDK (#3) and its derivatives (F5, F6 and F7) inhibits growth of […] mesothelioma cells. MESO4 mesothelioma cells were treated with iMDK (#3) or iMDK derivatives (F5, F6 or F7) at indicated different final concentrations.
as §1

midkine protein = test: Inhibition of midkine protein expression (Table, FIGS. 7-12); assay type: cell-based; conditions: for Activity on protein expression: 1 uM of compound
endogenous midkine = test: Endogenous midkine expression in H441 cells by western blotting (FIG. 18A); assay type: cell-based, human; conditions: H441 lung adenocarcinoma cells, 10 μM, 24 hours
Description: FIG. 18. […] A. H441 lung adenocarcinoma cells were treated with iMDK and related compounds at a final concentration of 10 μM. Twenty-four hours after treatment, cells were harvest and protein expression was assessed using western blotting assay. […] B. Shown is structures of compounds #2 (also known as F6). #3 (also known as iMDK), #5, #7, and #8. C. […] DMSO was used as control.
as §1

293 cells = test: Cell viability, Wright-Giemsa staining (FIG. 18C), 293 cells; assay type: cell-based, human; conditions: 10 μM, 3 days after treatment
[3] = system: non-small cell lung cancer expressing MDK; conditions: previously reported; cited from earlier work
MSTO-211H cells [4] = test: Colony formation, crystal violet staining (FIG. 3); assay type: cell-based, human; conditions: fourteen days after treatment
Description: as §1, with “Colony formation of MSTO-211H cells treated with iMDK. Fourteen days after the treatment, cells were fixed and stained with crystal violet. Representative images of experiments performed in triplicate are shown. Cell” for “Cell”

PI3 kinase/Akt pathway = conditions: previously reported; cited from earlier work
[5] = system: MSTO-211H mesothelioma cells; test: Cell viability, trypan blue exclusion assay (FIG. 2), MSTO-211H; assay type: cell-based, human; conditions: 48 hours of treatment
Description: as §1, with “FIG. 2. iMDK suppressed cell viability of MDK expressing malignant pulmonary mesothelioma cells. […] Cell viability was assessed by trypan blue exclusion assay. Statistical significance was defined as p<0.01 (*). Cell” for “Cell”

H2452 mesothelioma cells = test: Cell viability, trypan blue exclusion assay (FIG. 2), H2452; assay type: cell-based, human; conditions: H2452, 48 hours of treatment
Description: as §1, with “FIG. 2. iMDK suppressed cell viability of MDK expressing malignant pulmonary mesothelioma cells. […] Cell viability was assessed by trypan blue exclusion assay. Statistical significance was defined as p<0.01 (*). Cell” for “Cell”

[6] = system: MDK expressing non-small cell lung cancer cells; conditions: previously reported; cited from earlier work
H28 mesothelioma cells = test: Cell viability, trypan blue exclusion assay (FIG. 2), H28; assay type: cell-based, human; conditions: H28, 48 hours of treatment
Description: as §1, with “FIG. 2. iMDK suppressed cell viability of MDK expressing malignant pulmonary mesothelioma cells. […] Cell viability was assessed by trypan blue exclusion assay. Statistical significance was defined as p<0.01 (*). Cell” for “Cell”

[7] = system: tumors derived from MSTO-211H cells; test: Malignant pleural mesothelioma xenograft mouse model (FIG. 6); assay type: in vivo; conditions: i.p., compared to control (DMSO)
Text: Eight mice were used in each group. Tumor growth is expressed as mean tumor volume; bars represent SD. Statistical significance was defined as p<0.05 (#)

normal cells = conditions: previously reported; cited from earlier work
H2052 mesothelioma cells = test: Cell viability, trypan blue exclusion assay (FIG. 2), H2052; assay type: cell-based, human; conditions: H2052, 48 hours of treatment
Description: as §1, with “FIG. 2. iMDK suppressed cell viability of MDK expressing malignant pulmonary mesothelioma cells. […] Cell viability was assessed by trypan blue exclusion assay. Statistical significance was defined as p<0.01 (*). Cell” for “Cell”

MSTO-211H cells [8] = test: Apoptosis by TUNEL staining (FIG. 4); assay type: cell-based, human; conditions: 48 h treatment, dose dependent
Description: Cells were treated for 48 h at a indicated concentration of iMDK then TUNEL staining was performed to detect apoptosis using the DeadEnd colorimetric TUNEL system (Promega, Madison, WI) according to the manufacturer's protocol. Statistical significance was defined as p<0.01 (*). Cell lines: The human malignant pulmonary mesothelioma cells MSTO-211H, H2452, H2052, H28 MESO-1 and MESO-4 were grown in RPMI 1640 supplemented with 10% heat-inactivated fetal bovine serum. The human pulmonary adenocarcinoma cells: H441 and the human embryonic kidney cells: HEK293 were grown in high glucose Dulbecco's modified Eagle supplemented with 10% heat-inactivated fetal bovine serum. All cell lines were cultured in 5% CO2 at 37° C.

SMILES | growth of cells (number of cells) [2] | growth of cells (number of cells) (MESO4 mesothelioma cells) | Concentration to inhibit midkine protein expression (midkine protein) [µM] | Activity on protein expression (midkine protein) | other results
CC1(C)CCC(c2ccc(Cl)cc2)=C(CN2CCN(c3ccc(C(=O)NS(=O)(=O)c4ccc(N[C@H](CCN5CCOCC5)CSc5ccccc5)c(S(=O)(=O)C(F)(F)F)c4)cc3)CC2)C1 [ABT-263] | – | – | – | – | growth inhibition in combination with iMDK [1]: more effective than each drug alone; growth inhibition in combination with iMDK ([1]; listed as ABT263): enhanced growth inhibition
O=c1oc2ccccc2cc1-c1cn2cc(Cc3ccc(Cl)cc3)sc2n1 [Compound 1] | significantly inhibited the growth | significantly inhibited the growth | 1 | inhibits protein expression | cell viability (H441 cells): inhibited cell viability; endogenous midkine expression (endogenous midkine): suppressed endogenous midkine expression; cell viability (293 cells): inhibited cell viability
O=c1oc2ccccc2cc1-c1cn2cc(Cc3ccccc3)sc2n1 [Compound 5] | significantly inhibited the growth | significantly inhibited the growth | 10 | inhibits protein expression | –
COc1ccc(Cc2cn3cc(-c4cc5ccccc5oc4=O)nc3s2)cc1 [Compound 6] | significantly inhibited the growth | significantly inhibited the growth | 1 | inhibits protein expression | –
O=c1oc2ccccc2cc1-c1cn2cc(Cc3cccc(C(F)(F)F)c3)sc2n1 [Compound 7] | – | – | 0.1 | – | –
Cc1ccc(Cc2cn3cc(-c4cc5ccccc5oc4=O)nc3s2)cc1 [Compound 8] | significantly inhibited the growth | significantly inhibited the growth | 1 | inhibits protein expression | –
O=c1oc2ccccc2cc1-c1cn2cc(Cc3ccc(C(F)(F)F)cc3)sc2n1 [Compound 9] | significantly inhibited the growth | significantly inhibited the growth | 1 | inhibits protein expression | –
COc1ccc(-c2cn3cc(Cc4ccc(F)cc4)sc3n2)cc1 [Compound 10] | significantly inhibited the growth | significantly inhibited the growth | 10 | inhibits protein expression | –
O=c1oc2ccccc2cc1-c1cn2cc(Cc3ccc(F)cc3)sc2n1 [iMDK, 3-[2-(4-fluorobenzyl)imidazo[2,1-b][1,3]thiazol-6-yl]-2H-chromen-2-one] | significantly inhibited the growth | significantly inhibited the growth | 0.1 | – | cell viability (H441 cells): inhibited cell viability; suppression of non-small cell lung cancer expressing MDK [3]: suppresses; colony formation (MSTO-211H cells [4]): suppressed colony formation; PI3 kinase/Akt pathway (PI3 kinase/Akt pathway): inhibits; growth inhibition (cell viability) [5]: Dose-dependent growth inhibition; growth inhibition (cell viability) (H2452 mesothelioma cells): Dose-dependent growth inhibition; apoptosis [6]: induces apoptosis; growth inhibition (cell viability) (H28 mesothelioma cells): Dose-dependent growth inhibition; Volume of the tumors ([7]; iMDK 5 mg/kg): significantly reduced; Volume of the tumors ([7]; iMDK 9 mg/kg): significantly reduced; harm to normal cells (normal cells): without harming; growth inhibition (cell viability) (H2052 mesothelioma cells): Dose-dependent growth inhibition; endogenous midkine expression (endogenous midkine): suppressed endogenous midkine expression; cell viability (293 cells): inhibited cell viability; apoptosis (TUNEL positive cells) (MSTO-211H cells [8]): induced apoptosis; also recorded: significantly increased
